This is an account of results in patent US20080194636A1, “Enzyme Inhibitors and Uses Thereof” (Howard Florey Institute Of Experimental Physiology And …, priority 2004, published 2008).

The test system of test [1] is 3T3-L1 cells. Particulars: 0.1 and 1 uM; basal and insulin (0.7 nM) stimulated; cited from earlier work.
The subject of test [2] is scopolamine-induced memory deficit. Briefly: Scopolamine-induced memory deficit model, inhibitory avoidance paradigm. To be noted: rats, following scopolamine, retrieval trial 24 h later, vs scopolamine followed by vehicle. The format is in vivo, rat. The method, then:
The effect of IRAP inhibitor Compound 1 on scopolamine-induced amnesia was tested in the inhibitory avoidance paradigm.
The inhibitory avoidance box is made up of two chambers, a smaller light compartment and a larger darken compartment and the test comprises of two trials. The first training trial involves placing the rat in the light compartment facing the wall and as soon as it runs to the end of the dark compartment and turns around, an electric shock of 0.6 mA is administered for 2 s and the animal is left in the dark compartment for a total of 15 s before being returned to its home cage. After a 24 h interval, the animal is then tested again and the latency in entering the dark chamber is a measure of the ability of the animal to remember the aversive stimulus. To test for the effect of the IRAP inhibitors, the rats were implanted with a chronic indwelling cannula into the lateral ventricles 1 week before the behavioural experiments. On the day of the testing, 15 min before the training trial, the rats were injected with either […] scopolamine hydrobromide dissolved in 2 ul of 0.9% saline or 0.9% saline before being placed in the inhibitory avoidance box for the training trial. Immediately after the training trial, the rats were injected with either 0.2 or 2 nmol of compound 1 (from Example 1) dissolved in 2 ul of 10% DMSO or vehicle control. […]

The target in test [3] is T1, insulin-regulated aminopeptidase (IRAP) (Homo sapiens, UniProt Q9UIQ6).
T1 construct: containing the cDNA encoding the full length human RAP were utilised; made in house; host or cells: HEK293 cells transfected with pcDNA-3
The test is described as follows: In vitro enzymatic assay for inhibitors of IRAP (hydrolysis of Leu-MCA, fluorescence). The format is biochemical. Particulars: recombinant full length human IRAP from transfected HEK293 cells; substrate Leu-MCA. The procedure: An in vitro enzymatic assay was used for screening for compounds which inhibit IRAP activity. The assay used an aminopeptidase substrate (leucine 4-methylcoumaryl-7-amide), a source of IRAP-containing material, and a candidate inhibitor.
IRAP-containing material was incubated with a synthetic aminopeptidase substrate, such as Leu-MCA (leucine 4-methylcoumaryl-7-amide), and a test substance. Inhibition of the rate of degradation of the synthetic substrate was taken as a measure of the inhibitory effect of the test substance.
As a source of recombinant IRAP, HEK293 cells transfected with a eukaryotic expression vector pcDNA-3 containing the cDNA encoding the full length human RAP were utilised. The assay system involved the measurement of the rate of hydrolysis of Leu-MCA by RAP. […] Candidate test compounds were added to the assay system, and their effects on the hydrolysis of Leu-MCA were taken to be direct indicators of their ability to inhibit IRAP activity.

T1 sequence (Q9UIQ6 whole entry): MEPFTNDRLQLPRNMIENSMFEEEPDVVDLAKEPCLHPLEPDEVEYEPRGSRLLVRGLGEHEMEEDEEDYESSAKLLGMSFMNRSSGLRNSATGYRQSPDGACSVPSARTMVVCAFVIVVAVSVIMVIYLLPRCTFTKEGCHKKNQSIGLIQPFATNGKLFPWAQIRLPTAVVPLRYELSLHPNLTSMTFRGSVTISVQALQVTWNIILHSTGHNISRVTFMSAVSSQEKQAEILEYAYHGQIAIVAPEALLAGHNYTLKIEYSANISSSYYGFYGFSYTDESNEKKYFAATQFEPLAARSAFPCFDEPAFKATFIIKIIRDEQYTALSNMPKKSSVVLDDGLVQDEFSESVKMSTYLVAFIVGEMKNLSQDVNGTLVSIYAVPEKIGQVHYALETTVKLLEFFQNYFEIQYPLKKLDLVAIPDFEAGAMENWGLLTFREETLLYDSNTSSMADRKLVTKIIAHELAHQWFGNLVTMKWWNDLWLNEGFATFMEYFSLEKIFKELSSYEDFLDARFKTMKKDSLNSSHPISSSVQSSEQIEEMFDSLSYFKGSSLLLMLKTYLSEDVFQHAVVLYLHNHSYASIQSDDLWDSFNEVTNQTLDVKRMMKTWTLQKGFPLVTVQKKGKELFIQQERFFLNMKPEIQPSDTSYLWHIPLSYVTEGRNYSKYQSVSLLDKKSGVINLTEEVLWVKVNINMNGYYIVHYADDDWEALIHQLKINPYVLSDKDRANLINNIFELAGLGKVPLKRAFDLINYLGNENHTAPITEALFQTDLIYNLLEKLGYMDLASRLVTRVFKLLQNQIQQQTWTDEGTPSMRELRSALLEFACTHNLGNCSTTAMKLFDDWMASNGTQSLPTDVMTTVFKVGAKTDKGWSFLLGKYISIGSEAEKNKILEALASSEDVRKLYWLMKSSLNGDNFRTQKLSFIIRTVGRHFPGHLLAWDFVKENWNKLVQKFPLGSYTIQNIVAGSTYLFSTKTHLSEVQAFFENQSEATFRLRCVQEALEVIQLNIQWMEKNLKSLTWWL

Turning to `CC[C@H](C)[C@H](NC(=O)[C@H](Cc1ccc(O)cc1)NC(=O)[C@@H](N)C(C)C)C(=O)N[C@@H](Cc1cnc[nH]1)C(=O)N1CCC[C@H]1C(=O)N[C@@H](Cc1ccccc1)C(=O)O` [Ang IV], the glucose uptake result in test [1] was “enhance”.
Take `CCOC(=O)C1=C(N)Oc2cc(O)ccc2C1c1cccnc1` (stereo not shown) [Compound 1]: the “latency in entering the dark chamber” value in test [2] (0.2 nmol icv immediately after training trial) and in test [2] (2 nmol icv immediately after training trial) was “increased latencies” throughout. Besides, in test [3], the IC50 was 4 µM.
Turning to `CCOC(=O)C1=C(N)Oc2cc(O)ccc2C1c1cccc(Cl)c1` (stereo not shown) [Compound 2], the IC50 in test [3] stood at 42 µM.
The same measure, in the same setting: as for `COc1ccc(C2C(C#N)=C(N)Oc3cc(O)ccc32)cc1OC` (stereo not shown) [Compound 3], the figure is 45 µM.
Still for that read-out and setting: as for `COc1ccc(C2C(C#N)=C(N)Oc3cc(O)ccc32)cc1` (stereo not shown) [Compound 9], the figure is 80 µM.
